Laboratory results published in patent US11306102B2, “1,3-di-substituted ketene compound and application thereof” (BEBETTER MED INC., priority 2017, dated 2022).

Target: T1, PPARδ (Homo sapiens, UniProt Q03181)
T1 construct: expressed in transfected cells; host or cells: Hela cells
T1 sequence (Q03181 1-441): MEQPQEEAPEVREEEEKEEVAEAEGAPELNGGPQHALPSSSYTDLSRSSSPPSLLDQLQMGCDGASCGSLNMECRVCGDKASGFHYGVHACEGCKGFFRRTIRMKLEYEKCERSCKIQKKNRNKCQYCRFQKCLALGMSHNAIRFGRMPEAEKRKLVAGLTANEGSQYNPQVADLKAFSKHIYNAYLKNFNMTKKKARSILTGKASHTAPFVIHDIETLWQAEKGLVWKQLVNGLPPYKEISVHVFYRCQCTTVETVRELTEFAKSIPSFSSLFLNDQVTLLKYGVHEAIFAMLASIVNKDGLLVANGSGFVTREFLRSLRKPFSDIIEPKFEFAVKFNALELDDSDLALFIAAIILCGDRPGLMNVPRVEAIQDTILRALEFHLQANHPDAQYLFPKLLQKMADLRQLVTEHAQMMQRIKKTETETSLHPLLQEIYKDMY
Assay: Hela cell/luciferase reporter gene method, PPARδ agonist activity
Format: cell-based
Details: Hela cells, pPPRE3-TK-Luciferase reporter, 24 hrs incubation; read-out: agonistic activity on PPARδ (EC50)
Method: This example measures the biological activity of a PPAR agonist using the Hela cell/luciferase reporter gene method.
The target plasmids PCMV PPARα (Ampicillin+), PCMV PPARγ (Ampicillin+), PCMV PPARδ (Ampicillin+), and pPPRE3-TK-Luciferase (Ampicillin+) were introduced into DH5a competent cells by heat shock treatment, respectively. After being incubated for 1 hour at 37° C. with shaking (180 rpm), the cells were inoculated on LB agar solid medium containing antibiotic Ampicillin, and invertedly cultured at 37° C. for 12-16 hours. Then the monoclonal colony cultured on the medium was taken and inoculated into LB liquid medium for expanded culture. […] The plasmid obtained by centrifugation was suspended in TE buffer, and the plasmid concentration was measured and the mixture was stored at −20° C. Hela cells in the exponential phase were seeded in 6-well plates (8-10^5 cells/well), and after 6-8 hours of culture, the cells were transfected using Lipofectamine® 3000 Transfection Reagent (Invitrogen; #L3000015). A plasmid containing a PPAR binding site (peroxisome proliferator response element, PPRE) and a firefly luciferase gene (pPPRE3-TK-Luciferase) and PPAR expression vector were co-transfected into a Hela cell with a total amount of plasmid DNA of 2.5 ug (the mass ratio of each PPAR expression vector is pPPRE:PPARα=6:1, pPPRE:PPARδ=8:1, and pPPRE:PPARγ=2:1) to construct a drug screening cell model for PPAR agonists. PPAR was binded to the ligand and then binded to the peroxisome proliferator response element (PPRE), thereby initiating downstream firefly luciferase expression and its expression intensity was directly proportional to the degree of PPAR activation. The cells after 24 hours transfection were prepared into a cell suspension with a cell concentration of […] by a complete culture solution, and seeded into a 96-well plate with 100 ul per well. After overnight culture, the medium was changed to a medium containing 1% FBS. 10 mM candidate compound stock (1000×) were 4-fold diluted in DMSO for 8 points, then supplemented with medium containing 1% FBS to a final concentration of 50 uM (5×) by addition of 25 μl of 5× compound diluent to each well in different concentration gradients and incubated under 37° C., 5% CO2 incubator for 24 hrs. The 96-well plate was taken out and 30 μl of Bright-Glo™ Luciferase Assay System (Promega #E2620) was added to each well. The Luciferase luminescence intensity was measured by a SynergyH1 full-function microplate detector. The obtained data was used to calculate EC50 using GraphPad Prism 5.0 software to determine the biological activity of the compound.

SMILES	EC50 [nM]
CCSc1ccc2c(C)c(C(=O)/C=C/c3cc(C)c(OC(C)(C)C(=O)O)c(C)c3)oc2c1 [Compound 74, (E)-2-(4-(3-(6-(ethylthio)-3-methylbenzofuran-2-yl)-3-oxoprop-1-en-1-yl)-2,6-dimethylphenoxy)-2-methylpropanoic acid]	144
CSc1ccc2cc(C(=O)/C=C/c3cc(Cl)c(OC(C)(C)C(=O)O)c(Cl)c3)oc2c1 [Compound 100, (E)-2-(2,6-dichloro-4-(3-(6-(methylthio)benzofuran-2-yl)-3-oxoprop-1-en-1-yl)phenoxy)-2-methylpropanoic acid]	87.1
Cc1cc(/C=C/C(=O)c2ccc3c(c2)CCS3)cc(C)c1OC(C)(C)C(=O)O [Compound 36, (E)-2-(4-(3-(2,3-dihydrobenzo[b]thiophen-5-yl)-3-oxoprop-1-en-1-yl)-2,6-dimethylphenoxy)-2-methylpropanoic acid]	120
CSc1ccc2c(C)c(C(=O)/C=C/c3cc(Cl)c(OC(C)(C)C(=O)O)c(Cl)c3)oc2c1 [Compound 103, (E)-2-(2,6-dichloro-4-(3-(3-methyl-6-(methylthio)benzofuran-2-yl)-3-oxoprop-1-en-1-yl)phenoxy)-2-methylpropanoic acid]	164
CSc1ccc2cc(C(=O)/C=C/c3cc(C)c(OC(C)(C)C(=O)O)c(C)c3)sc2c1 [Compound 81, (E)-2-(2,6-dimethyl-4-(3-(6-(methylthio)benzo[b]thiophen-2-yl)-3-oxoprop-1-en-1-yl)phenoxy)-2-methylpropanoic acid]	3640
CCc1c(C(=O)/C=C/c2cc(C)c(OC(C)(C)C(=O)O)c(C)c2)oc2cc(SC)ccc12 [Compound 63, (E)-2-(4-(3-(3-ethyl-6-(methylthio)benzofuran-2-yl)-3-oxoprop-1-en-1-yl)-2,6-dimethylphenoxy)-2-methylpropanoic acid]	205
CCSc1ccc(C(=O)/C=C/c2cc(C)c(OC(C)(C)C(=O)O)c(C)c2)c2occc12 [Compound 6, (E)-2-(4-(3-(4-(ethylthio)benzofuran-7-yl)-3-oxoprop-1-en-1-yl)-2,6-dimethylphenoxy)-2-methylpropanoic acid]	119

The remaining lines, values ahead:

EC50 [nM]	SMILES
36	CSc1ccc(C(=O)/C=C/c2cc(C)c(OC(C)(C)C(=O)O)c(C)c2)c2occc12 [Compound 5, (E)-2-(2,6-dimethyl-4-(3-(4-(methylthio)benzofuran-7-yl)-3-oxoprop-1-en-1-yl)phenoxy)-2-methylpropanoic acid]
64.9	CSc1ccc2cc(C(=O)/C=C/c3cc(C)c(OC(C)(C)C(=O)O)c(C)c3)oc2c1 [Compound 51, (E)-2-(2,6-dimethyl-4-(3-(6-(methylthio)benzofuran-2-yl)-3-oxoprop-1-en-1-yl)phenoxy)-2-methylpropanoic acid]
210	CSc1ccc2c(C)c(C(=O)/C=C/c3cc(C)c(OC(C)(C)C(=O)O)c(C)c3)oc2c1 [Compound 62, (E)-2-(2,6-dimethyl-4-(3-(3-methyl-6-(methylthio)benzofuran-2-yl)-3-oxoprop-1-en-1-yl)phenoxy)-2-methylpropanoic acid]
335	COc1ccc2cc(C(=O)/C=C/c3cc(C)c(OC(C)(C)C(=O)O)c(C)c3)oc2c1 [Compound 43, (E)-2-(4-(3-(6-methoxybenzofuran-2-yl)-3-oxoprop-1-en-1-yl)-2,6-dimethylphenoxy)-2-methylpropanoic acid]
604	CSc1ccc(C(=O)/C=C/c2cc(C)c(OC(C)(C)C(=O)O)c(C)c2)c2ccoc12 [Compound 27, (E)-2-(2,6-dimethyl-4-(3-(7-(methylthio)benzofuran-4-yl)-3-oxoprop-1-en-1-yl)phenoxy)-2-methylpropanoic acid]
614	CSc1cccc2oc(C(=O)/C=C/c3cc(C)c(OC(C)(C)C(=O)O)c(C)c3)cc12 [Compound 60, (E)-2-(2,6-dimethyl-4-(3-(4-(methylthio)benzofuran-2-yl)-3-oxoprop-1-en-1-yl)phenoxy)-2-methylpropanoic acid]

Same assay, conditions: compared with Elafibranor

increased activity for activation of PPARδ compared with Elafibranor [fold]	SMILES
2	CSc1ccc2cc(C(=O)/C=C/c3cc(C)c(OC(C)(C)C(=O)O)c(C)c3)oc2c1 [Compound 51, (E)-2-(2,6-dimethyl-4-(3-(6-(methylthio)benzofuran-2-yl)-3-oxoprop-1-en-1-yl)phenoxy)-2-methylpropanoic acid]
